In ChEMBL document CHEMBL1201862, “PubChem BioAssay data set” (2004):
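Cultured in 96-well plates, cells were exposed to test compound for 48 hours across five concentrations. Abbreviation: GI50, concentration required for 50% inhibition of growth.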 Active and inactive are the calls of the source. Cut-off read from the data, not from the text of the source: active = GI50 up to about 1.1 µM and inactive = higher.

Columns and labels:
Test in all cases: NCI anticancer screen, dose series, 48 h
BT-549 = system: BT-549
EKVX = system: EKVX
HCC 2998 = system: HCC 2998
HL-60 = system: HL-60
HOP-62 = system: HOP-62
HOP-92 = system: HOP-92
IGROV-1 = system: IGROV-1
K562 = system: K562
M14 = system: M14
MCF7 = system: MCF7
MOLT-4 = system: MOLT-4
NCI-H23 = system: NCI-H23
NCI-H460 = system: NCI-H460
NCI/ADR-RES = system: NCI/ADR-RES
OVCAR-3 = system: OVCAR-3
RXF 393 = system: RXF 393
SF-295 = system: SF-295
SF-539 = system: SF-539
SK-MEL-2 = system: SK-MEL-2
SNB-75 = system: SNB-75

Row | SMILES | GI50 (BT-549) | GI50 (EKVX) | GI50 (HCC 2998) | GI50 (HL-60) | GI50 (HOP-62) | GI50 (HOP-92) | GI50 (IGROV-1) | GI50 (K562) | GI50 (M14) | GI50 (MCF7) | GI50 (MOLT-4) | GI50 (NCI-H23) | GI50 (NCI-H460) | GI50 (NCI/ADR-RES) | GI50 (OVCAR-3) | GI50 (RXF 393) | GI50 (SF-295) | GI50 (SF-539) | GI50 (SK-MEL-2) | GI50 (SNB-75)
1 | CCOC(=O)C1(Cc2ccccc2)Cc2cc3c(cc2C1=O)CCC3 (stereo not given) | > 100 µM (inactive) | > 100 µM (inactive) | > 100 µM (inactive) | > 100 µM (inactive) | > 100 µM (inactive) | > 100 µM (inactive) | > 100 µM (inactive) | > 100 µM (inactive) | 92 µM (inactive) | > 100 µM (inactive) | > 100 µM (inactive) | > 100 µM (inactive) | > 100 µM (inactive) | > 100 µM (inactive) | > 100 µM (inactive) | > 100 µM (inactive) | > 100 µM (inactive) | > 100 µM (inactive) | > 100 µM (inactive) | > 100 µM (inactive)
2 | COc1cc(C)c2c(=O)c3ccccc3n(C)c2c1 | 20.8 µM (inactive) | 35 µM (inactive) | 45 µM (inactive) | 32.7 µM (inactive) | > 10 µM (inactive) | 7.43 µM (inactive) | 26.9 µM (inactive) | 17.1 µM (inactive) | 27.2 µM (inactive) | 28.2 µM (inactive) | 29.2 µM (inactive) | 24.3 µM (inactive) | 33.3 µM (inactive) | 30.5 µM (inactive) | 21.6 µM (inactive) | 14.2 µM (inactive) | 15.5 µM (inactive) | 15.6 µM (inactive) | 36.4 µM (inactive) | 26.4 µM (inactive)
3 | CSc1c(C#N)c(N)nc2c(/N=N\c3ccc(Cl)cc3)c(N)nn12 | 2.94 µM (inactive) | 0.34 µM (active) | 5.94 µM (inactive) | 2.31 µM (inactive) | 10.7 µM (inactive) | 3.29 µM (inactive) | 1.85 µM (inactive) | 2.08 µM (inactive) | 18.6 µM (inactive) | 2.17 µM (inactive) | 2.44 µM (inactive) | 2.6 µM (inactive) | 11.1 µM (inactive) | 16.8 µM (inactive) | 1.85 µM (inactive) | 2.55 µM (inactive) | 22.9 µM (inactive) | 5.85 µM (inactive) | 2.87 µM (inactive) | 7.41 µM (inactive)
4 | O=C(Nc1ccc(Cl)c(C(F)(F)F)c1)C(=O)c1c(O)c2ccccc2oc1=O | > 100 µM (inactive) | > 100 µM (inactive) | > 100 µM (inactive) | > 10 µM (inactive) | > 100 µM (inactive) | > 100 µM (inactive) | > 100 µM (inactive) | > 100 µM (inactive) | > 100 µM (inactive) | > 100 µM (inactive) | > 100 µM (inactive) | > 100 µM (inactive) | > 100 µM (inactive) | > 100 µM (inactive) | > 100 µM (inactive) | > 100 µM (inactive) | > 100 µM (inactive) | > 100 µM (inactive) | > 100 µM (inactive) | > 100 µM (inactive)
